Laboratory results from patent publication US9434687B2, “Detection of synthetic cannabinoids” (priority 2011, dated 2016).
Like-named read-outs stand apart in the source and are kept apart here.

Assays:
Assay type in all cases: binding, sheep
[1] = test system: IgG fraction of antiserum raised to Immunogen I; settings: Antibody to Immunogen I; cross-reactants at 100 ng/ml; 1000 ng/ml; standard JWH-018
Protocol: (§1) An aqueous solution of each immunogen was formulated with Freund's Complete Adjuvant (FCA) to form an emulsion consisting of 2 mg/ml*immunogen in 50% (v/v) FCA. Three sheep were immunised with this emulsion (1° immunisation), 0.25 ml being intramuscularly injected at each of four sites in the flank of each animal. Subsequent immunizations (boosts) contained 1 mg/ml*immunogen. All boosts were emulsified in 50% (v/v) Freund's Incomplete Adjuvant (FIA) and were administered in the same manner as the 1° immunisation, at monthly intervals. Blood sampling took place 7 to 14 days after each boost. *The general procedure for immunogen administration is outlined above, however, it was necessary to deviate from this protocol in some cases, due to reduced immunogen concentrations (Immunogens II, IV, VII and VIII) and/or amount available (Immunogen VIII). Any deviations from the protocol described are outlined in Table 5 below and highlighted in bold.
(§2) The wells of an enhanced binding 96 well polystyrene microtiter plate were coated with IgG fraction of antiserum raised to Immunogen I or II, diluted in 10 mM Tris, pH8.5 (125 μl/well). The appropriate antibody coating dilution was determined using standard ELISA checkerboard techniques. The plate was incubated overnight at 4° C., washed 4 times over 10 minutes with Tris buffered saline containing Tween 20 (TBST) and tapped dry. Standard solutions (JWH-018 for Immunogens I and II) were applied at 0, 0.625, 1.25, 2.5, 5, 10, 20 and 40 ng/ml and 50 μl of each was added to the appropriate wells. 75 μl of conjugate (appropriate hapten-HRP) diluted in Tris buffer (pH 7.2) containing EDTA, D-mannitol, sucrose, thimerosal and BSA, was added to each of the wells. The appropriate dilution of conjugate was also determined using standard ELISA checkerboard techniques. The plate was incubated at 25° C. for 1 hour. Excess unbound conjugate was removed by washing 6 times over a 10 minute period with TBST. 125 μl of tetramethylbenzidine (TMB) substrate solution was added to each well of the plate that was then incubated for 20 minutes in the dark at room temperature. The reaction was terminated by addition of 125 μl 0.2M H2SO4 to each well. The absorbance was then measured at 450 nm using a microtiter plate reader. The data are inputted to a computer program called ‘KC Junior’. It is a 4 parameter fit curve and allow the calculation of concentrations between the standard runs. This program is used to calculate the IC50s by dividing the 0 ng/ml OD value by 2 and obtaining the concentration value from the curve for this OD.
In a similar manner to that described above, the wells of a 96-well microtiter plate were coated with the IgG fraction of the antiserum raised to Immunogens I or II. Standard solutions (JWH-018 for Immunogen I and II) were applied at 0, 0.625, 1.25, 2.5, 5, 10, 20 and 40 ng/ml and conjugate was employed as detection reagent.
(§3) The data set out in Tables 7-10 are generated using antibodies raised against the indicated Immunogens in a competitive binding assay with the indicated tracers, using the indicated standards
(§4) In order to determine the specificity of the competitive ELISAs, standard solutions of a range of structurally similar synthetic cannabinoids and their metabolites were prepared in TBST.
(§5) Using the calibration curves generated and employing a single level of cross reactants, these were used to determine the cross-reactivity of each immunoassay with these substances. These are the standards used for the IC50 and cross-reactivity data generation: […]

[2] = test system: IgG fraction of antiserum raised to Immunogen II; experiment: Competitive ELISA, antibody RS1833B12 to Immunogen II, tracer ESC4555 (Example 36); settings: Antibody to Immunogen II; cross-reactants at 100 ng/ml; 1000 ng/ml; standard JWH-018
Protocol: as §1
as §2, with “The” for “The wells of an enhanced binding 96 well polystyrene microtiter plate were coated with IgG fraction of antiserum raised to Immunogen I or II, diluted in 10 mM Tris, pH8.5 (125 μl/well). The”, “Standard solutions (JWH-018 for Immunogens I and II) were applied at 0, 0.625, 1.25, 2.5, 5, 10, 20 and 40 ng/ml and 50 μl of each was added to the appropriate wells.” left out, “runs.” for “runs. This program is used to calculate the IC50s by dividing the 0 ng/ml OD value by 2 and obtaining the concentration value from the curve for this OD.”
In a similar manner to that described above, the wells of a 96-well microtiter plate were coated with the IgG fraction of the antiserum raised to Immunogens I or II.
as §3, §5

[3] = test system: IgG fraction of antiserum raised to Immunogen IV; settings: Antibody to Immunogen IV; cross-reactants at 100 ng/ml; 1000 ng/ml; standard JWH-018
Protocol: as §1, §2
(§6) In a similar manner to that described above, the wells of a 96-well microtiter plate were coated with the IgG fraction of the antiserum raised to Immunogens IV, VII or VIII. Standard solutions (JWH-018 for Immunogens IV and VIII, JWH-015 for Immunogen VII) were prepared in TBST at 0, 1.25, 2.5, 5, 10, 20, 40 and 80 ng/ml and conjugate was employed as detection reagent.
as §3, §4, §5

[4] = test system: IgG fraction of antiserum raised to Immunogen VIII; settings: Antibody to Immunogen VIII; cross-reactants at 100 ng/ml; 1000 ng/ml; standard JWH-018
Protocol: as §1, §2, §6, §3, §4, §5

[5] = test system: IgG fraction of antiserum raised to Immunogen VII
Protocol: as §1, §2, §6, §3, §4, §5

[6] = Antibody to Immunogen VII, cross-reactants at 100 ng/ml, 1000 ng/ml, standard JWH-015

| Structure (SMILES) | % B/B0 [1] [%] | % B/B0 [2] [%] | % B/B0 [3] [%] | % B/B0 [4] [%] | % B/B0 [5, 6] [%] | % B/B0 ([5]; JWH-015 1.25 ng/ml) [%] | % B/B0 ([5]; JWH-015 2.5 ng/ml) [%] | % B/B0 ([5]; JWH-015 5 ng/ml) [%] | % B/B0 ([5]; JWH-015 10 ng/ml) [%] | % B/B0 ([5]; JWH-015 20 ng/ml) [%] | % B/B0 ([5]; JWH-015 40 ng/ml) [%] | % B/B0 ([5]; JWH-015 80 ng/ml) [%] | IC50 ([5]; Table 9 standard curve, standard concentration which produces 50% B/B0) [ng/mL] |
| --- | --- | --- | --- | --- | --- | --- | --- | --- | --- | --- | --- | --- | --- |
| CCCC(C)n1cc(C(=O)c2cccc3ccccc23)c2ccccc21 (single isomer, unassigned) [JWH-018 N-(1-methylbutyl) isomer] | 12.42 | 51.92 | 73.49 | 63.22 | 67.71 |  |  |  |  |  |  |  |  |
| CCC(C)Cn1cc(C(=O)c2cccc3ccccc23)c2ccccc21 (single isomer, unassigned) [JWH-018 N-(2-methylbutyl) isomer] | 3.61 | 28.60 | 29.88 | 85.16 | 58.84 |  |  |  |  |  |  |  |  |
| CCCCn1cc(C(=O)c2cccc3ccccc23)c2c(O)cccc21 [4-OH JWH-073, JWH-073 4-hydroxyindole metabolite] | 39.50 | 40.14 | 28.69 | 26.23 | 82.82 |  |  |  |  |  |  |  |  |
| CCCCn1cc(C(=O)c2cccc3ccccc23)c2cc(O)ccc21 [5-OH JWH-073, JWH-073 5-hydroxyindole metabolite] | 7.34 | 20.73 | 84.06 | 90.70 | 75.11 |  |  |  |  |  |  |  |  |
| CCCCn1cc(C(=O)c2cccc3ccccc23)c2ccc(O)cc21 [6-OH JWH-073, JWH-073 6-hydroxyindole metabolite] | 5.93 | 28.03 | 74.89 | 93.52 | 61.83 |  |  |  |  |  |  |  |  |
| CCCCCn1cc(C(=O)c2cccc3ccccc23)c2cccc(O)c21 [7-OH JWH-018, JWH-018 7-hydroxyindole metabolite] | 6.72 | 34.79 | 93.31 | 94.46 | 68.53 |  |  |  |  |  |  |  |  |
| CCCCn1cc(C(=O)c2cccc3ccccc23)c2cccc(O)c21 [7-OH JWH-073, JWH-073 7-hydroxyindole metabolite] | 5.59 | 46.05 | 96.95 | 94.04 | 61.78 |  |  |  |  |  |  |  |  |
| CS(=O)(=O)O.Cc1c(C(=O)c2cccc3ccccc23)c2cccc3c2n1[C@H](CN1CCOCC1)CO3 [(+)WIN 55212-2] | 17.00 | 83.87 | 92.76 | 107.12 | 24.08 |  |  |  |  |  |  |  |  |
| O=C(c1cccc(I)c1)c1cn(CCCCCF)c2ccccc12 [AM-694 3-iodo isomer] | 31.37 | 48.58 | 37.20 | 12.71 | 89.49 |  |  |  |  |  |  |  |  |
| O=C(c1ccccc1I)c1cn(CCCCCF)c2ccccc12 [AM-694] | 12.17 | 36.18 | 11.30 | 11.92 | 75.66 |  |  |  |  |  |  |  |  |
| CN1CCCCC1Cn1cc(C(=O)c2cccc3ccccc23)c2ccccc21 (centres unmarked) [AM-1220] | 4.45 | 77.46 | 86.93 | 106.65 | 49.71 |  |  |  |  |  |  |  |  |
| O=C(c1cccc2ccccc12)c1cn(CCCC(O)CF)c2ccccc12 (centres unmarked) [AM-2201 N-(4-hydroxypentyl) metabolite] | 3.80 | 46.55 | 43.62 | 36.41 | 52.75 |  |  |  |  |  |  |  |  |
| CN1CCCCC1Cn1cc(C(=O)c2ccccc2I)c2ccccc21 (centres unmarked) [AM-2233] | 16.97 | 86.43 | 92.10 | 91.25 | 72.46 |  |  |  |  |  |  |  |  |
| CC(C)CCn1cc(C(=O)c2cccc3ccccc23)c2ccccc21 [JWH 018 N-(3-methylbutyl) isomer] | 3.16 | 30.38 | 12.75 | 53.29 | 48.81 |  |  |  |  |  |  |  |  |
| CCCCCCn1cc(C(=O)c2cccc3ccccc23)c2cc(O)ccc21 [JWH 019 5-hydroxyindole metabolite] | 19.81 | 17.34 | 93.84 | 101.57 | 87.58 |  |  |  |  |  |  |  |  |
| CCCCn1cc(C(=O)c2c(C)ccc3ccccc23)c2ccccc21 [JWH 073 2-methylnaphthyl analog] | 21.84 | 43.34 | 34.47 | 78.79 | 76.74 |  |  |  |  |  |  |  |  |
| CCCCCn1cc(C(=O)c2c(C)ccc3ccccc23)c2ccccc21 [JWH 122 2-methylnaphthyl isomer] | 33.35 | 27.14 | 26.13 | 61.74 | 85.37 |  |  |  |  |  |  |  |  |
| CCCCCn1cc(C(=O)c2cccc3cc(C)ccc23)c2ccccc21 [JWH 122 6-methylnaphthyl isomer] | 12.55 | 39.17 | 8.12 | 20.46 | 86.66 |  |  |  |  |  |  |  |  |
| CCCCCn1cc(C(=O)c2cccc3ccc(C)cc23)c2ccccc21 [JWH 122 7-methylnaphthyl isomer] | 36.46 | 38.28 | 13.48 | 38.48 | 92.44 |  |  |  |  |  |  |  |  |
| CCCCCn1c(C)c(C(=O)c2cccc3ccccc23)c2ccccc21 [JWH-007] | 32.96 | 66.06 | 60.63 | 61.76 | 27.77 |  |  |  |  |  |  |  |  |
| CCCn1c(C)c(C(=O)c2cccc3ccccc23)c2ccccc21 [JWH-015] | 14.67 | 65.67 | 93.20 | 92.27 | 17.84 | 75 | 62 | 54 | 43 | 34 | 26 | 20 | 5.910 |
